According to patent US20150045410A1, “METHOD OF REGULATING CFTR EXPRESSION AND PROCESSING” (University of Iowa Research Foundation, priority 2012, published 2015):

Test system: CFTR-ΔF508
Assay: CFTR-mediated Cl^− transport (transepithelial current) in primary CF airway epithelia
Format: cell-based, human
Details: multiple donors, oligonucleotide transfection, F&I then GlyH-101
Description: FIG. 27. […] Change in It following F&I+PG-01 treatment of primary CF airway epithelial cells (homozygous for ΔF508-CFTR) with indicated reagents. N=1 donor. PG-01 is a potentiator used along with F&I to increase Cl^− transport.
Airway epithelia from human trachea and primary bronchus removed from organs donated for research were cultured at the air-liquid interface (ALI) (Karp, P. H. et al. An in vitro model of differentiated human airway epithelia. Methods for establishing primary cultures. Methods Mol. Biol. 188, 115-137 (2002)). These studies were approved by the Institutional Review Board of the University of Iowa. Briefly, airway epithelial cells were dissociated from native tissue by pronase enzyme digestion. […]
Transepithelial Cl^− current measurements were made in Ussing chambers about 2 weeks post-seeding (Itani, 0. A. et al. Human cystic fibrosis airway epithelia have reduced Cl− conductance but not increased Na+ conductance. Proc. Natl. Acad. Sci. USA 108, 10260-10265 (2011)). […] Transepithelial Cl^− current was measured under short-circuit current conditions. […] After measuring baseline current, the transepithelial current (It) response to sequential apical addition of 100 μM amiloride (Amil), 100 μM 4,4′-diisothiocyanoto-stilbene-2,2′-disulfonic acid (DIDS), 4.8 mM [Cl^−], 10 μM forskolin and 100 μM 3-isobutyl-1-methylxanthine (IBMX), and 100 μM GlyH-101 was measured. […]

SIN3A DsiRNA: Dicer-substrate siRNA against SIN3A, sense SEQ ID NO: 6, antisense SEQ ID NO: 7 (sense GCGAUACAUGAAUUCAGAUACUACC; antisense GGUAGUAUCUGAAUUCAUGUAUCGCUC; chemistry not given here)
CFTR-mediated Cl^− transport: restored

miR-138 mimic: synthetic modified RNA duplex, sense SEQ ID NO: 4, antisense SEQ ID NO: 5, showing miR-138-like activity
CFTR-mediated Cl^− transport: restored
